The text below walks through data of patent US12168008B2, “Oxabicycloheptanes for modulation of immune response” (LIXTE BIOTECHNOLOGY, INC., priority 2016, dated 2024).

The nature of data set [1]: clinical. The format is in vivo, human. The settings on record: for Cmax / AUC / Tmax: endothall after LB-100 2.33 mg/m^2. On the procedure:
The main objective was to determine the safety, tolerability, and maximum tolerated dose of LB-100 given intravenously daily for three consecutive days every 3 weeks. The secondary objectives were to document any evidence of potential anti-tumor activity and obtain pharmacokinetic data on LB-100 and a metabolite, endothall, in patients receiving LB-100 at the MTD (Quang et al., 2016).
The plasma concentrations of LB-100 and endothall were measured (Quang et al., 2016) prior to and over 4 hours after completion of the 2-hour infusion at the MTD of 2.33 mg/m2 of LB-100 on day 1 in one patient and on day 1 and 3 in two patients. […] Plasma concentrations of endothall were low throughout the infusion, being below the lower limit of detection (5 ng/mL) in one patient.

Data set [2] concerns solid tumor. The settings on record: cited from earlier work.
For data set [3] the following is noted: human, in vivo; cited from earlier work.

As usually defined, the Cmax is the maximum level reached in the sampled fluid or tissue. Broadly, the AUC is the area under the concentration-time curve, a measure of exposure. High values mean high exposure, low ones low exposure. By Tmax is commonly meant the time from dosing to the highest level. Turning to `O=C(O)[C@@H]1[C@H](C(=O)O)[C@H]2CC[C@@H]1O2` [endothall], the peak concentration (Cmax) result in data set [1] (subject 001-0030, day 1, N-D = below lower limit of quantification (5 ng/ml)) is recorded as “N-D^a”; in data set [1] (subject 001-0030, day 3, N-D = below lower limit of quantification (5 ng/ml)), “N-D^a”; in data set [1] (subject 002-0028, day 1), 11.5 ng/mL; in data set [1] (subject 002-0028, day 3), 34.3 ng/mL; in data set [1] (subject 003-0029, day 1) it was 14.8 ng/mL. Further, the AUC came out at 22 ng·h/mL in data set [1] (subject 002-0028, day 1); 143 ng·h/mL in data set [1] (subject 002-0028, day 3); 28 ng·h/mL in data set [1] (subject 003-0029, day 1). The Tmax in data set [1] (subject 002-0028, day 1) is 4 h; in data set [1] (subject 002-0028, day 3), 4 h; in data set [1] (subject 003-0029, day 1) it was 4 h. Further, in data set [1] (one patient, after LB-100 2.33 mg/m2, lower limit of detection), the “plasma concentration of endothall” value is below 5 ng/mL. Further, the “maximal concentration of endothall” value in data set [1] (other two patients, last sampling time point (4 h)) is given as 34.7 ng/mL.
As to `C[C@@](O)(/C=C/[C@H]1CC=CC(=O)O1)[C@@H](C[C@@H](O)\C=C/C=C\C=C\CO)OP(=O)(O)O` [fostriecin], in data set [2] (in vivo), the “dose-limiting toxicity (DLT)” value was “without dose-limiting toxicity”. In addition, in data set [2] (of 46 solid tumor patients), the disease stability is listed as 16 (34.8%) patients (%).
Take “ipilimumab: human cytotoxic T-lymphocyte antigen 4 (CTLA-4)-blocking antibody”: in data set [3], the incidence of death is given as 2.1% and the “patients with grade 3 or 4 adverse events” value is reported as “up to 15%”.
